Data reported in patent publication US20080124338A1, “METHODS FOR TREATMENT OF INFLAMMATORY DISEASE AND CHLAMYDIA INFECTIOUS DISEASE” (The Scripps Research Institute, priority 2006, published 2008).
“Also recorded” adds a separate entry of the source. Peptide text beside a SMILES is read from it. * marks the point of attachment. Cbz = O=C(OCc1ccccc1)*

How the values were obtained:
[1] = tested on: Chlamydia trachomatis LGV2; test: p65 cleavage in Chlamydia-infected cells treated with antibiotics (immunoblotting); assay type: cell-based; conditions: rifampin 0.1 μg/ml, chloramphenicol 60 μg/ml, penicillin G 100 μg/ml, FIG. 1E
Protocol: A. Hela 229 cells were infected with Chlamydia trachomatis LGV2 at 1 IFU/cell for varying times, or with invasive (wt) or invasion-defective (mut) Salmonella typhimurium for 2 hr. IκBα expression and degradation were detected by immunoblotting analyses. TNFα (10 ng/ml) was used as a positive control. B. Hela 229 cells were infected with LGV2 at 1 IFU/cell for 2, 16 and 24 hr. The cytosolic (C) and nuclear (N) fractions were separated and redistribution of p65/RelA was detected by immunoblotting analysis. The expression of lamin A and β-tubulin were used as loading controls for nuclear and cytosolic fractions, respectively. C. Whole cell lysates from Chlamydia-infected cells were separated by SDS-PAGE and cleavage of p65 was detected with an N- or C-terminus specific antibody against p65. D. Selective cleavage of p65 by Chlamydia infection. The expression of NF-κB pathway signaling molecules in Chlamydia-infected and non-infected control cells was determined by immunoblotting analysis. E. Inhibition of Chlamydia growth blocks p65 cleavage. The infected cells were treated with rifampin (Rif, 0.1 μg/ml) or chloramphenicol (Chl, 60 μg/ml), reagents that inhibit Chlamydia growth by blocking transcription or translation, respectively. […] The expression of β-tubulin or Erk2/MAPK was used as loading controls. All experiments were performed at least 3 times.
Infection assays. […]

[2] = tested on: p65 cleavage activity of Chlamydia; test: In vitro p65 cleavage assay with solubilized chlamydial EB proteins; assay type: biochemical; conditions: 37° C. for 60 min; inhibitor added 30 min prior to p65; EDTA 5 mM, lactacystin 10 μM; FIG. 2C
Protocol: Purified Chlamydia EB was solubilized with a buffer containing 1% NP-40. […] The graph represents the rates of p65 disappearance and p40 appearance in the same reaction. C. […] In parallel experiments, protease inhibitors were included in the in vitro p65 cleavage assay. […] Lane 4: Roche protease inhibitor cocktail at 10×; Lane 5: heat-inactivated EB; Lane 6: EDTA at 5 mM; Lane 7: Lactacystin at 10 μM; Lane 8: MG132 at 20 μM; Lane 9: TPCK at 20 μM; and Lane 10: TLCK at 20 μM. The presence of the chlamydial major outer membrane protein (MOMP) was used as a measure of EB protein input (lower panel).
In vitro p65 cleavage assays. Gradient purified chlamydial EB were solubilized with Tris-buffered saline, supplemented with 1% NP-40. The soluble proteins were collected and used for p65 cleavage assays. […] For inhibition assays, an inhibitor was added 30 min prior to the addition of p65 protein. All assays were performed at 37° C. for 60 min or as otherwise indicated.

IκBα = IκBα degradation in Hela 229 cells (immunoblotting); assay type: cell-based; conditions: TNFα 10 ng/ml, positive control, FIG. 1A
Excerpt: The host inflammatory response to bacterial infection or proinflammatory cytokine and LPS stimulation is mediated by NF-κB activity, which is regulated by the selective degradation of IκB proteins. Karin and Ben-Neriah, Annu. Rev. Immunol 18: 621, 2000; Richmond, Nat. Rev. Immunol 2: 664, 2002. To investigate whether Chlamydia targeted the NF-κB pathway to interfere with host inflammatory response, we first examined the integrity of IκBα, a regulatory molecule of NF-κB activation. To this end, monolayers of Hela 229 cells were infected with C. trachomatis LGV2 at 1 inclusion forming unit per cell (1 IFU/cell) for varying time points. Lad et al., J Immunol 174: 7186, 2005. […]
A. Hela 229 cells were infected with Chlamydia trachomatis LGV2 at 1 IFU/cell for varying times, or with invasive (wt) or invasion-defective (mut) Salmonella typhimurium for 2 hr. IκBα expression and degradation were detected by immunoblotting analyses. […] The cytosolic (C) and nuclear (N) fractions were separated and redistribution of p65/RelA was detected by immunoblotting analysis. […] Whole cell lysates from Chlamydia-infected cells were separated by SDS-PAGE and cleavage of p65 was detected with an N- or C-terminus specific antibody against p65. […] The expression of NF-κB pathway signaling molecules in Chlamydia-infected and non-infected control cells was determined by immunoblotting analysis. […]

proteasomal degradation = test: Detection of p22 cleavage product in cells treated with MG-132; assay type: cell-based; conditions: Chlamydia-infected cells treated with MG-132; data not shown
Excerpt: The cleavage of p65 was confirmed by the detection of a 22 kDa fragment with a C-terminus specific antibody against p65 (FIG. 1C). […] The 40 kDa fragment was further characterized with MALDI proteomics. Thus, 293T cells, transfected for GST-p65 protein expression, were infected with LGV2 for 28 hr. After purification, the cleavage product was subjected to trypsin digestion followed by MALDI TOF identification. Seven proteolytic fragments were detected, which covered the N-terminal GST tag and the RHD region of p65 (supplemental data).
Western blots. Except as noted, extracts were prepared by lysis of cells with a buffer containing 143 mM NaCl, 50 mM Tris-HCl (pH 7.5), 1 mM DTT, 1% NP-40, 0.1% SDS and protease inhibitors (Roche). Soluble proteins were separated by SDS-PAGE or Tris-Glycine gels (Novex). Blots were probed with specific antibodies. Horseradish peroxidase conjugated secondary antibodies (Sigma) and ECL reagent kit (Pierce) were used for detection.

NF-κB [3] = test: pIL8-luciferase reporter gene assay in 293T cells; assay type: cell-based, human; conditions: TNFα 10 ng/ml, FIG. 3C, 3D
Protocol: (§1) We therefore investigated whether expression of CT441 interfered with NF-κB signal transduction. To this end, 293T cells were transfected with pIL8-luciferase (Kim et al., Cancer Res 65: 8784, 2005) and a plasmid for CT441 expression. The cells were then treated with TNFα to induce luciferase expression. In parallel experiments, we also included a mouse cell line for control purposes since murine p65 is resistant to cleavage by Chlamydia infection. […] The p40 cleavage product (amino acid residues 1-351) was then investigated for its inhibitory effect on TNFα-induced NF-κB activation.
(§2) A. Putative chlamydial proteases were expressed as N-terminal HA-tagged proteins in 293T cells and screened for their ability to cleave p65. […] 441, 494, 823 and 858 represent chlamydial CT441, CT494, CT823, and CT858, respectively. […] Monolayers of 293T or NIH3T3 cells were co-transfected with pIL8-Luc (Kim et al., Cancer Res 65: 8784, 2005) and a plasmid for the expression of chlamydial protease CT441 or the p40 cleavage product of p65. pSV40-RL was included as an internal control for transfection reactions. The cells were treated with TNFα (10 ng/ml) 18 hr post transfection to induce luciferase expression. Luciferase activities were determined with a Dual-Glo reagent kit (Promega) 18 hr after TNFα treatment. The ratio of firefly and Renilla luciferase activities (FL/RL) was plotted. […]

p65 = test: Expression of putative chlamydial proteases in 293T cells, cleavage of endogenous p65 (Western blot); assay type: cell-based, human; conditions: N-terminal HA-tagged proteins expressed in 293T cells; FIG. 3A, 3B
Excerpt: The chlamydial genome encodes 16 proteases (Stephens et al., Science 282: 754, 1998), including four putative proteases that contain a leader sequence for periplasmic secretion and potential translocation by the chlamydial type III secretory system. The mature peptides of those putative proteases were therefore screened for their ability to cleave p65 after expression in 293T cells. […] CT441 encodes a tail-specific protease (Tsp) that is well conserved among Chlamydia species.
as §2, with “plotted. All transfections were performed in duplicate and the data are presented as means +/− error.” for “plotted.”

NF-κB [4] = test: pIL8-luciferase reporter gene assay in NIH3T3 cells; assay type: cell-based, mouse; conditions: TNFα 10 ng/ml, FIG. 3C
Protocol: as §1, §2

For `CO[C@H]1/C=C/O[C@@]2(C)Oc3c(C)c(O)c4c(O)c(c(/C=N/N5CCN(C)CC5)c(O)c4c3C2=O)NC(=O)/C(C)=C\C=C\[C@H](C)[C@H](O)[C@@H](C)[C@@H](O)[C@@H](C)[C@H](OC(C)=O)[C@@H]1C` [rifampin], the “Chlamydia cleavage of p65” value [1] was “blocked”.

`CC(=O)N[C@@H](CSC(=O)[C@]1([C@@H](O)C(C)C)NC(=O)[C@H](C)[C@@H]1O)C(=O)O` [lactacystin] was tested, and the “p65 cleavage activity of Chlamydia (solubilized EB proteins)” value [2] was “inhibited p65 cleavage activity”.

In the case of TNFα, the IκBα degradation (IκBα) is reported as “caused IκBα degradation”.

`CC(C)C[C@@H](C=O)NC(=O)[C@H](CC(C)C)NC(=O)[C@H](CC(C)C)NC(=O)OCc1ccccc1` [MG-132] (Cbz-Leu-Leu-Leu-aldehyde) was tested, and the “detection of p22” value (proteasomal degradation) was “Enhanced detection of p22”.

`O=C(N[C@H](CO)[C@H](O)c1ccc([N+](=O)[O-])cc1)C(Cl)Cl` [chloramphenicol] was tested, and the “Chlamydia cleavage of p65” value [1] was “blocked”.

B1: p40: N-terminal p40 cleavage product of p65/RelA, amino acid residues 1-351 of SEQ ID NO:1 (protein, listed as Homo Sapiens)
chain: MDELFPLIFPAEPAQASGPYVEIIEQPKQRGMRFRYKCEGRSAGSIPGERSTDTTKTHPTIKINGYTGPGTVRISLVTKDPPHRPHPHELVGKDCRDGFYEAELCPDRCIHSFQNLGIQCVKKRDLEQAISQRIQTNNNPFQVPIEEQRGDYDLNAVRLCFQVTVRDPSGRPLRLPPVLPHPIFDNRAPNTAELKICRVNRNSGSCLGGDEIFLLCDKVQKEDIEVYFTGPGWEARGSFSQADVHRQVAIVFRTPPYADPSLQAPVRVSMQLRRPSDRELSEPMEFQYLPDTDDRHRIEEKRKRTYETFKSIMKKSPFSGPTDPRPPPRRIAVPSRSSASVPKPAPQPYPF
modifications: Myc tag
With B1 the “TNFα-induced luciferase activity (NF-κB activation)” value (NF-κB [3]) was “inhibited luciferase expression; also recorded: inhibited NF-κB activity”.

B2: CT858: chlamydial protease detected during an infection but not in purified EB (protein)
chain: MKMNRIWLLLLTFSSAIHSPVQGESLVCKNALQDLSFLEHLLQVKYAPKTWKEQYLGWDLVQSSVSAQQKLRTQENPSTSFCQQVLADFIGGLNDFHAGVTFFAIESAYLPYTVQKSSDGRFYFVDIMTFSSEIRVGDELLEVDGAPVQDVLATLYGSNHKGTAAEESAALRTLFSRMASLGHKVPSGRTTLKIRRPFGTTREVRVKWRYVPEGVGDLATIAPSIRAPQLQKSMRSFFPKKDDAFHRSSSLFYSPMVPHFWAELRNHYATSGLKSGYNIGSTDGFLPVIGPVIWESEGLFRAYISSVTDGDGKSHKVGFLRIPTYSWQDMEDFDPSGPPPWEEFAKIIQVFSSNTEALIIDQTNNPGGSVLYLYALLSMLTDRPLELPKHRMILTQDEVVDALDWLTLLENVDTNVESRLALGDNMEGYTVDLQVAEYLKSFGRQVLNCWSKGDIELSTPIPLFGFEKIHPHPRVQYSKPICVLINEQDFSCADFFPVVLKDNDRALIVGTRTAGAGGFVFNVQFPNRTGIKTCSLTGSLAVREHGAFIENIGVEPHIDLPFTANDIRYKGYSEYLDKVKKLVCQLINNDGTIILAEDGSF
modifications: left off: small tags and cut ends
notes: chlamydial protease detected during an infection but not in purified EB
B2 was tested, and the “p65 cleavage after expression in 293T cells” value (p65) was “did not exhibit p65 cleavage activity”.

B3: CT441: Chlamydia trachomatis tail-specific protease, SEQ ID NO:2 (protein, listed as Chlamydia trachomatis)
chain: MMRFARFCLLVLTLFPQLAFSAEPLRRQDVRKTVDKLVEHHIDTQQISPYILSRSLEDYVRSFDSHKAYLTQDEVFSHAFSEEATRPLFKQYQEDNFSSFKELDTCIQQSISRAREWRSSWLTDSIRVIQDAMSHTIEKKPSAWASSIEEVKQRQYDLLLSYASIYLEDAAKNRYQGKEHALVKLCIRQIENHENPYIGINDHGYRMSPEEEANSFHVRIIKSIAHSLDAHTAYFSQEEALSMRAQLEKGMCGIGVVLKEDIDGVVVKEVLAGGPADKTGSLRVGDIIYRVNGKNIENTPFPGVLDSLRGSPGSSVTLDIHRQNNDHVIQLRREKILLDSRRVDVSYEPYGNGIIGKITLHSFYEGENQVSSEQDLRKAIRELQEKNLLGLVLDIRENTGGFLSQAIKVSGLFLTNGVVVVSRYADGSVKRYRTISPQKFYDGPLAVLVSKSSASAAEIVAQTLQDYGVALIVGDQQTYGKGTIQHQTITGSNSQEDFFKVTVGRYYSPSGKSTQLEGVKSDIVIPSRYAEDKLGERFLEYALPADQYENVINDNLGDLDINIRPWFQKYYSPHLQKPELVWREMLPQLAHNSQERLEKNKNFEIFVQHLKKTNKQDRSFGSNDLQMEESVNIVKDMILLKSIS
B3 was tested, and the “p65 cleavage after expression in 293T cells” value (p65) was “caused p65 cleavage; also recorded: resulted in selective cleavage of p65”, the “TNFα-induced luciferase activity (NF-κB activation)” value (NF-κB [3]) was “inhibited TNFα-induced luciferase activity; also recorded: inhibited NF-κB activity” and the TNFα-induced luciferase expression (NF-κB [4]) was “showed no effect”.
